Test results from patent US12414565B2, “Pyridazine (THIO)amides as fungicidal compounds” (Bayer Aktiengesellschaft, priority 2018, dated 2025).

Key:
Sphaerotheca fuliginea = assay: In vivo preventive test on Sphaerotheca fuliginea (powdery mildew on cucurbits); settings: Podosphaera fuliginea, 192 h; 500 ppm of active ingredient; preventive spray on gherkin; evaluated 8 days after inoculation; 100% = no disease; read-out: efficacy
Experimental: (§1) The active ingredients were made soluble and homogenized in a mixture of Dimethyl sulfoxide/Acetone/Tween® 80 and then diluted in water to the desired concentration.
The young plants of gherkin were treated by spraying the active ingredient prepared as described above. Control plants were treated only with an aqueous solution of Acetone/Dimethyl sulfoxide/Tween® 80.
After 24 hours, the plants were contaminated by spraying the leaves with an aqueous suspension of Sphaerotheca fuliginea spores. The contaminated gherkin plants were incubated for 8 days at 20° C. and at 70-80% relative humidity.
The test was evaluated 8 days after the inoculation. 0% means an efficacy which corresponds to that of the control plants while an efficacy of 100% means that no disease was observed.

Pyrenophora teres = assay: In vivo preventive test on Pyrenophora teres (net blotch on barley); settings: 240 h, 500 ppm of active ingredient, preventive spray on barley, evaluated 10 days after inoculation, 100% = no disease, read-out: efficacy
Experimental: as §1
The young plants of barley were treated by spraying the active ingredient prepared as described above. Control plants were treated only with an aqueous solution of Acetone/Dimethyl sulfoxide/Tween® 80.
After 24 hours, the plants were contaminated by spraying the leaves with an aqueous suspension of Pyrenophora teres spores. The contaminated barley plants were incubated for 48 hours at 20° C. and at 100% relative humidity and then for 8 days at 20° C. and at 70-80% relative humidity.
The test was evaluated 10 days after the inoculation. 0% means an efficacy which corresponds to that of the control plants while an efficacy of 100% means that no disease was observed.

Alternaria alternata = Alternaria alternata in vitro cell test; type: cell-based; settings: 120 h, 20 ppm of active ingredient, liquid culture, 5 days incubation, absorbance, read-out: efficacy (inhibition of fungal growth)
Experimental: (§2) [table] Fungicides were solubilized in DMSO and the solution used to prepare the required range of concentrations. The final concentration of DMSO used in the assay was <1%. A spore suspension of A. alternata was prepared and diluted to the desired spore density. Fungicides were evaluated for their ability to inhibit spore germination and mycelium growth in liquid culture assay. The compounds were added in the desired concentration to the culture medium with spores. After 5 days incubation, fungi-toxicity of compounds was determined by spectrometric measurement of mycelium growth. Inhibition of fungal growth was determined by comparing the absorbance values in wells containing the fungicides with the absorbance in control wells without fungicides.

Botrytis cinerea = assay: In vivo preventive test on Botrytis cinerea (grey mould); settings: 500 ppm of active ingredient, preventive spray on gherkin or cabbage, evaluated 4 to 5 days after inoculation, 100% = no disease, read-out: efficacy
Experimental: as §1
The young plants of gherkin or cabbage were treated by spraying the active ingredient prepared as described above. Control plants were treated only with an aqueous solution of Acetone/Dimethyl sulfoxide/Tween® 80.
After 24 hours, the plants were contaminated by spraying the leaves with an aqueous suspension of Botrytis cinerea spores. The contaminated gherkin plants were incubated for 4 to 5 days at 17° C. and at 90% relative humidity. The contaminated cabbage plants were incubated for 4 to 5 days at 20° C. and at 100% relative humidity.
The test was evaluated 4 to 5 days after the inoculation. 0% means an efficacy which corresponds to that of the control plants while an efficacy of 100% means that no disease was observed.

[1] = system: Colletotrichum lindemuthianum; assay: Colletotrichum lindemuthianum in vitro cell test; type: cell-based; settings: 144 h, 20 ppm of active ingredient, liquid culture, 6 days incubation, absorbance, read-out: efficacy (inhibition of fungal growth)
Experimental: as §2, with “was ≤1%.” for “was <1%.”, “of C. lindemuthianum” for “of A. alternata”, “inhibit spores” for “inhibit spore”, “After 6” for “After 5”

Alternaria brassicae = assay: In vivo preventive test on Alternaria brassicae (leaf spot on radish or cabbage); settings: 144 h, 500 ppm of active ingredient, preventive spray on radish or cabbage, evaluated 6 days after inoculation, 100% = no disease, read-out: efficacy
Experimental: as §1
The young plants of radish or cabbage were treated by spraying the active ingredient prepared as described above. Control plants were treated only with an aqueous solution of Acetone/Dimethyl sulfoxide/Tween® 80.
After 24 hours, the plants were contaminated by spraying the leaves with an aqueous suspension of Alternaria brassicae spores. The contaminated radish or cabbage plants were incubated for 6 days at 20° C. and at 100% relative humidity.
The test was evaluated 6 days after the inoculation. 0% means an efficacy which corresponds to that of the control plants while an efficacy of 100% means that no disease was observed.

[2] = Measurement of Log P values by HPLC on reversed phase columns (EEC directive 79/831 Annex V.A8); type: physicochemical
Experimental: Measurement of Log P values as provided herein was performed according to EEC directive 79/831 Annex V.A8 by HPLC (High Performance Liquid Chromatography) on reversed phase columns with the following methods: • ^[a]
If more than one Log P value is available within the same method, all the values are given and separated by “+”.
Lambda-max-values were determined using UV-spectra from 200 nm to 400 nm and the peak values of the chromatographic signals

Row | Structure (SMILES) | pest or weed control at 500 ppm (Sphaerotheca fuliginea) [%] | pest or weed control at 500 ppm (Pyrenophora teres) [%] | inhibition at 20 ppm (Alternaria alternata) [%] | pest or weed control at 500 ppm (Botrytis cinerea) [%] | inhibition at 20 ppm [1] [%] | pest or weed control at 500 ppm (Alternaria brassicae) [%] | further results
1 | CC(=O)c1cc(C(=O)NCC(F)c2ccc(Br)cc2Cl)c(Oc2cccc(C(F)(F)F)c2)nn1 (racemic) [I-605, 6-acetyl-N-[rac-2-(4-bromo-2-chloro-phenyl)-2-fluoro-ethyl]-3-[3-(trifluoromethyl)phenoxy]pyridazine-4-carboxamide] | 90 to 100 | 70 to 79 | 90 to 100 | 70 to 79 | 90 to 100 | 90 to 100 | 
2 | O=C(O)c1ccnnc1Oc1cccc(C(F)(F)F)c1 [1-129] |  |  |  |  |  |  | LogP ([2]; method [a]: LC-UV, acidic range, 0.1% formic acid in water / acetonitrile, Table 3, formula (1)): 1.47^[a]
3 | Cc1ccc(C(F)(F)CNC(=O)c2cc(C)nnc2Cl)c(C)c1 [3-06] |  |  |  |  |  |  | LogP ([2]; method [a]: LC-UV, acidic range, 0.1% formic acid in water / acetonitrile, Table 7, formula (3)): 3.20^[a]
4 | Cc1ccc(C(F)(F)CNC(=O)c2cc(Cl)nnc2Oc2cccc(C(F)(F)F)c2)c(C)c1 [I-014, 6-chloro-N-[2-(2,4-dimethylphenyl)-2,2-difluoro-ethyl]-3-[3-(trifluoromethyl)phenoxy]pyridazine-4-carboxamide] | 90 to 100 | 70 to 79 | 90 to 100 | 90 to 100 | 90 to 100 | 90 to 100 | 
5 | Cc1ccc(C(F)(F)CNC(=O)c2c(Oc3cccc(C(F)(F)F)c3)nnc(Cl)c2I)c(C)c1 [I-020, 6-chloro-N-[2-(2,4-dimethylphenyl)-2,2-difluoro-ethyl]-5-iodo-3-[3-(trifluoromethyl)phenoxy]pyridazine-4-carboxamide] | 90 to 100 | 80 to 89 | 90 to 100 | 90 to 100 | 90 to 100 | 90 to 100 | 
6 | Cc1ccc(CCNC(=S)c2cc(C)nnc2Oc2cccc(C(F)(F)F)c2)c(C)c1 [I-094, N-[2-(2,4-dimethylphenyl)ethyl]-6-methyl-3-[3-(trifluoromethyl)phenoxy]pyridazine-4-carbothioamide] | 90 to 100 | 80 to 89 | 80 to 89 | 90 to 100 | 90 to 100 | 90 to 100 | 
7 | Cc1cc(C2CC2)ccc1C(F)(F)CNC(=O)c1cc(Cl)nnc1Oc1cccc(C(F)(F)F)c1 [I-240, 6-chloro-N-[2-(4-cyclopropyl-2-methyl-phenyl)-2,2-difluoro-ethyl]-3-[3-(trifluoromethyl)phenoxy]pyridazine-4-carboxamide] | 90 to 100 | 70 to 79 | 90 to 100 | 90 to 100 | 90 to 100 | 90 to 100 | 
8 | CCc1c(Cl)nnc(Oc2cccc(C(F)(F)F)c2)c1C(=O)NCC(F)(F)c1ccc(Cl)cc1 [I-254, 6-chloro-N-[2-(4-chlorophenyl)-2,2-difluoro-ethyl]-5-ethyl-3-[3-(trifluoromethyl)phenoxy]pyridazine-4-carboxamide] | 90 to 100 |  | 90 to 100 | 90 to 100 | 90 to 100 | 90 to 100 | 
9 | O=C(NCC(F)(F)c1ccc(Br)cc1Cl)c1cc(C2CC2)nnc1Oc1cccc(C(F)(F)F)c1 [I-312] |  |  |  |  |  |  | LogP ([2]; method [a]): 4.79; LogP ([2]; method [b]): 4.68
10 | COC(=O)N(CC(F)(F)c1ccc(C)cc1C)C(=O)c1cc(Cl)nnc1Oc1cccc(C(F)(F)F)c1 [I-335, methyl N-[6-chloro-3-[3-(trifluoromethyl)phenoxy]pyridazine-4-carbonyl]-N-[2-(2,4-dimethylphenyl)-2,2-difluoro-ethyl]carbamate] | 80 to 89 |  | 70 to 79 | 90 to 100 | 80 to 89 | 80 to 89 | 
11 | Cc1ccc(C(F)(F)CNC(=O)c2c(Oc3cccc(C(F)(F)F)c3)nnc(Cl)c2NC2COC2)c(C)c1 [I-408, 6-chloro-N-[2-(2,4-dimethylphenyl)-2,2-difluoro-ethyl]-5-(oxetan-3-ylamino)-3-[3-(trifluoromethyl)phenoxy]pyridazine-4-carboxamide] | 90 to 100 | 70 to 79 | 90 to 100 | 90 to 100 | 90 to 100 | 90 to 100 | 
12 | Cc1ccc(C(F)(F)CNC(=O)c2cc(I)nnc2Oc2cccc(C(F)(F)F)c2)c(C)c1 [I-461, N-[2-(2,4-dimethylphenyl)-2,2-difluoro-ethyl]-6-iodo-3-[3-(trifluoromethyl)phenoxy]pyridazine-4-carboxamide] | 90 to 100 | 80 to 89 | 90 to 100 | 90 to 100 | 90 to 100 | 90 to 100 | 
13 | Cc1cc(C(=O)NCCc2ccc(C(F)F)cn2)c(Oc2cccc(C(F)(F)F)c2)nn1 [I-525] |  |  |  |  |  |  | LogP ([2]; LogP method [a]): 2.57; LogP ([2]; LogP method [b]): 2.71
14 | O=C(NCC(F)(F)c1ccc(Br)cc1Cl)c1cc(Cl)nnc1Oc1cccc(F)c1F [I-530, N-[2-(4-bromo-2-chloro-phenyl)-2,2-difluoro-ethyl]-6-chloro-3-(2,3-difluorophenoxy)pyridazine-4-carboxamide] | 90 to 100 | 70 to 79 | 90 to 100 | 90 to 100 | 90 to 100 | 90 to 100 | 
15 | Cc1ccc(C(F)(F)CNC(=O)c2cc(C)nnc2Oc2cccc(C3CCC3)c2)c(C)c1 [I-564, 3-(3-cyclobutylphenoxy)-N-[2-(2,4-dimethylphenyl)-2,2-difluoro-ethyl]-6-methyl-pyridazine-4-carboxamide] | 80 to 89 |  | 90 to 100 | 90 to 100 | 70 to 79 | 80 to 89 | 
16 | CSc1cc(C(=O)NCC(F)(F)c2ccc(C)cc2C)c(Oc2cccc(C(F)(F)F)c2)nn1 [I-767, N-[2-(2,4-dimethylphenyl)-2,2-difluoro-ethyl]-6-methylsulfanyl-3-[3-(trifluoromethyl)phenoxy]pyridazine-4-carboxamide] | 90 to 100 | 80 to 89 | 90 to 100 | 90 to 100 | 90 to 100 | 90 to 100 | 
17 | Cc1ccc(C(F)(F)CNC(=O)c2c(Oc3cccc(C(F)(F)F)c3)nnc(Cl)c2NC2CC2C2CC2)c(C)c1 (centres unmarked) [I-812] |  |  |  |  |  |  | LogP ([2]; method [a]): 4.87^[a]
18 | Cc1ccc(C(F)(F)CNC(=O)c2c(Oc3cccc(C4CC4)c3F)nnc(Cl)c2C)c(Br)c1 [I-840] |  |  |  |  |  |  | LogP ([2]; method marked [a], HPLC on reversed phase columns): 4.57^[a]
